# Experiment: Clinical laboratory findings: haematology; data mean (standard deviation)
# Type: in vivo, healthy men
# Excerpt: Data are mean (standard deviation).
smiles,measurement,setting,value
C[C@@H](N)c1cc(Cl)ccc1Cn1c(=S)[nH]c(=O)c2[nH]ccc21 [AZD4831],Basophils,"45 mg fed, 24 h",0.03 (0.01) 10^9 L^–1
same,Eosinophils,"45 mg fed, 24 h",0.19 (0.10) 10^9 L^–1
same,Erythrocyte MCH,"45 mg fed, 24 h",30.2 (2.0) pg
same,Erythrocyte MCH concentration,"45 mg fed, 24 h",343 (14) g L^–1
same,Erythrocyte MCV,"45 mg fed, 24 h",88.0 (5.6) fL
same,Erythrocytes,"45 mg fed, 24 h",4.74 (0.15) 10^12 L^–1
same,Haematocrit,"45 mg fed, 24 h",0.42 (0.03) ratio
same,Haemoglobin,"45 mg fed, 24 h",143 (9) g L^–1
same,Leukocytes,"45 mg fed, 24 h",5.51 (0.85) 10^9 L^–1
same,Lymphocytes,"45 mg fed, 24 h",1.76 (0.61) 10^9 L^–1
same,Monocytes,"45 mg fed, 24 h",0.34 (0.16) 10^9 L^–1
same,Neutrophils,"45 mg fed, 24 h",3.11 (0.79) 10^9 L^–1
same,Platelets,"45 mg fed, 24 h",227 (50) 10^9 L^–1
same,Reticulocytes,"45 mg fed, 24 h",77.4 (5.4) 10^9 L^–1
same,Basophils,"45 mg fed, 48 h",0.03 (0.02) 10^9 L^–1
same,Eosinophils,"45 mg fed, 48 h",0.20 (0.15) 10^9 L^–1
same,Erythrocyte MCH,"45 mg fed, 48 h",30.2 (1.7) pg
same,Erythrocyte MCH concentration,"45 mg fed, 48 h",343 (8) g L^–1
same,Erythrocyte MCV,"45 mg fed, 48 h",88.2 (5.8) fL
same,Erythrocytes,"45 mg fed, 48 h",4.89 (0.11) 10^12 L^–1
same,Haematocrit,"45 mg fed, 48 h",0.43 (0.03) ratio
same,Haemoglobin,"45 mg fed, 48 h",148 (9) g L^–1
same,Leukocytes,"45 mg fed, 48 h",5.93 (1.07) 10^9 L^–1
same,Lymphocytes,"45 mg fed, 48 h",1.85 (0.77) 10^9 L^–1
same,Monocytes,"45 mg fed, 48 h",0.40 (0.16) 10^9 L^–1
same,Neutrophils,"45 mg fed, 48 h",3.35 (1.20) 10^9 L^–1
same,Platelets,"45 mg fed, 48 h",233 (51) 10^9 L^–1
same,Reticulocytes,"45 mg fed, 48 h",84.5 (7.9) 10^9 L^–1
same,Basophils,"45 mg fed, follow up",0.04 (0.01) 10^9 L^–1
same,Eosinophils,"45 mg fed, follow up",0.18 (0.12) 10^9 L^–1
same,Erythrocyte MCH,"45 mg fed, follow up",30.7 (1.0) pg
same,Erythrocyte MCH concentration,"45 mg fed, follow up",347 (11) g L^–1
same,Erythrocyte MCV,"45 mg fed, follow up",88.3 (5.1) fL
same,Erythrocytes,"45 mg fed, follow up",4.72 (0.16) 10^12 L^–1
same,Haematocrit,"45 mg fed, follow up",0.42 (0.04) ratio
same,Haemoglobin,"45 mg fed, follow up",145 (9) g L^–1
same,Leukocytes,"45 mg fed, follow up",6.37 (1.60) 10^9 L^–1
same,Lymphocytes,"45 mg fed, follow up",1.79 (0.37) 10^9 L^–1
same,Monocytes,"45 mg fed, follow up",0.39 (0.12) 10^9 L^–1
same,Neutrophils,"45 mg fed, follow up",3.85 (1.22) 10^9 L^–1
same,Platelets,"45 mg fed, follow up",250 (62) 10^9 L^–1
same,Reticulocytes,"45 mg fed, follow up",82.9 (10.8) 10^9 L^–1
same,Basophils,"135 mg fasted, 24 h",0.02 (0.01) 10^9 L^–1
same,Eosinophils,"135 mg fasted, 24 h",0.11 (0.07) 10^9 L^–1
same,Erythrocyte MCH,"135 mg fasted, 24 h",31.0 (0.4) pg
same,Erythrocyte MCH concentration,"135 mg fasted, 24 h",354 (5) g L^–1
same,Erythrocyte MCV,"135 mg fasted, 24 h",87.5 (1.9) fL
same,Erythrocytes,"135 mg fasted, 24 h",4.69 (0.26) 10^12 L^–1
same,Haematocrit,"135 mg fasted, 24 h",0.41 (0.02) ratio
same,Haemoglobin,"135 mg fasted, 24 h",145 (8) g L^–1
same,Leukocytes,"135 mg fasted, 24 h",5.11 (1.13) 10^9 L^–1
same,Lymphocytes,"135 mg fasted, 24 h",1.52 (0.40) 10^9 L^–1
same,Monocytes,"135 mg fasted, 24 h",0.35 (0.12) 10^9 L^–1
same,Neutrophils,"135 mg fasted, 24 h",3.00 (0.79) 10^9 L^–1
same,Platelets,"135 mg fasted, 24 h",200 (25) 10^9 L^–1
same,Reticulocytes,"135 mg fasted, 24 h",72.4 (19.9) 10^9 L^–1
same,Basophils,"135 mg fasted, 48 h",0.03 (0.01) 10^9 L^–1
same,Eosinophils,"135 mg fasted, 48 h",0.12 (0.07) 10^9 L^–1
same,Erythrocyte MCH,"135 mg fasted, 48 h",30.9 (0.4) pg
same,Erythrocyte MCH concentration,"135 mg fasted, 48 h",353 (7) g L^–1
same,Erythrocyte MCV,"135 mg fasted, 48 h",87.4 (1.6) fL
same,Erythrocytes,"135 mg fasted, 48 h",4.68 (0.30) 10^12 L^–1
same,Haematocrit,"135 mg fasted, 48 h",0.41 (0.03) ratio
same,Haemoglobin,"135 mg fasted, 48 h",144 (9) g L^–1
same,Leukocytes,"135 mg fasted, 48 h",5.28 (1.23) 10^9 L^–1
same,Lymphocytes,"135 mg fasted, 48 h",1.66 (0.47) 10^9 L^–1
same,Monocytes,"135 mg fasted, 48 h",0.37 (0.11) 10^9 L^–1
same,Neutrophils,"135 mg fasted, 48 h",3.00 (0.83) 10^9 L^–1
same,Platelets,"135 mg fasted, 48 h",202 (29) 10^9 L^–1
same,Reticulocytes,"135 mg fasted, 48 h",70.1 (15.1) 10^9 L^–1
same,Basophils,"135 mg fasted, follow up",0.03 (0.01) 10^9 L^–1
same,Eosinophils,"135 mg fasted, follow up",0.14 (0.09) 10^9 L^–1
same,Erythrocyte MCH,"135 mg fasted, follow up",30.8 (0.5) pg
same,Erythrocyte MCH concentration,"135 mg fasted, follow up",350 (11) g L^–1
same,Erythrocyte MCV,"135 mg fasted, follow up",88.2 (1.7) fL
same,Erythrocytes,"135 mg fasted, follow up",4.62 (0.25) 10^12 L^–1
same,Haematocrit,"135 mg fasted, follow up",0.41 (0.02) ratio
same,Haemoglobin,"135 mg fasted, follow up",143 (9) g L^–1
same,Leukocytes,"135 mg fasted, follow up",6.80 (3.32) 10^9 L^–1
same,Lymphocytes,"135 mg fasted, follow up",1.51 (0.26) 10^9 L^–1
same,Monocytes,"135 mg fasted, follow up",0.48 (0.32) 10^9 L^–1
same,Neutrophils,"135 mg fasted, follow up",4.46 (2.99) 10^9 L^–1
same,Platelets,"135 mg fasted, follow up",218 (24) 10^9 L^–1
same,Reticulocytes,"135 mg fasted, follow up",82.8 (19.3) 10^9 L^–1
same,Basophils,"405 mg fasted, 24 h",0.04 (0.01) 10^9 L^–1
same,Eosinophils,"405 mg fasted, 24 h",0.18 (0.15) 10^9 L^–1
same,Erythrocyte MCH,"405 mg fasted, 24 h",30.8 (1.5) pg
same,Erythrocyte MCH concentration,"405 mg fasted, 24 h",345 (8) g L^–1
same,Erythrocyte MCV,"405 mg fasted, 24 h",89.4 (3.8) fL
same,Erythrocytes,"405 mg fasted, 24 h",4.81 (0.31) 10^12 L^–1
same,Haematocrit,"405 mg fasted, 24 h",0.43 (0.01) ratio
same,Haemoglobin,"405 mg fasted, 24 h",148 (6) g L^–1
same,Leukocytes,"405 mg fasted, 24 h",5.53 (1.12) 10^9 L^–1
same,Lymphocytes,"405 mg fasted, 24 h",1.40 (0.19) 10^9 L^–1
same,Monocytes,"405 mg fasted, 24 h",0.34 (0.09) 10^9 L^–1
same,Neutrophils,"405 mg fasted, 24 h",3.47 (0.79) 10^9 L^–1
same,Platelets,"405 mg fasted, 24 h",190 (23) 10^9 L^–1
same,Reticulocytes,"405 mg fasted, 24 h",68.5 (16.4) 10^9 L^–1
same,Basophils,"405 mg fasted, 48 h",0.03 (0.01) 10^9 L^–1
same,Eosinophils,"405 mg fasted, 48 h",0.24 (0.26) 10^9 L^–1
same,Erythrocyte MCH,"405 mg fasted, 48 h",31.0 (1.6) pg
same,Erythrocyte MCH concentration,"405 mg fasted, 48 h",347 (7) g L^–1
same,Erythrocyte MCV,"405 mg fasted, 48 h",89.4 (3.7) fL
same,Erythrocytes,"405 mg fasted, 48 h",4.67 (0.22) 10^12 L^–1
same,Haematocrit,"405 mg fasted, 48 h",0.42 (0.01) ratio
same,Haemoglobin,"405 mg fasted, 48 h",145 (5) g L^–1
same,Leukocytes,"405 mg fasted, 48 h",5.53 (1.14) 10^9 L^–1
same,Lymphocytes,"405 mg fasted, 48 h",1.51 (0.30) 10^9 L^–1
same,Monocytes,"405 mg fasted, 48 h",0.40 (0.14) 10^9 L^–1
same,Neutrophils,"405 mg fasted, 48 h",3.22 (0.62) 10^9 L^–1
same,Platelets,"405 mg fasted, 48 h",187 (20) 10^9 L^–1
same,Reticulocytes,"405 mg fasted, 48 h",66.3 (20.0) 10^9 L^–1
same,Basophils,"405 mg fasted, follow up",0.04 (0.01) 10^9 L^–1
same,Eosinophils,"405 mg fasted, follow up",0.27 (0.27) 10^9 L^–1
same,Erythrocyte MCH,"405 mg fasted, follow up",31.0 (1.1) pg
same,Erythrocyte MCH concentration,"405 mg fasted, follow up",345 (5) g L^–1
same,Erythrocyte MCV,"405 mg fasted, follow up",89.8 (3.6) fL
same,Erythrocytes,"405 mg fasted, follow up",4.83 (0.35) 10^12 L^–1
same,Haematocrit,"405 mg fasted, follow up",0.43 (0.02) ratio
same,Haemoglobin,"405 mg fasted, follow up",149 (8) g L^–1
same,Leukocytes,"405 mg fasted, follow up",5.84 (1.41) 10^9 L^–1
same,Lymphocytes,"405 mg fasted, follow up",1.43 (0.19) 10^9 L^–1
same,Monocytes,"405 mg fasted, follow up",0.40 (0.08) 10^9 L^–1
same,Neutrophils,"405 mg fasted, follow up",3.54 (1.02) 10^9 L^–1
same,Platelets,"405 mg fasted, follow up",205 (21) 10^9 L^–1
same,Reticulocytes,"405 mg fasted, follow up",78.6 (19.4) 10^9 L^–1

# From article PMC6422671 (British Journal of Clinical Pharmacology, 2019)
